Results reported in ChEMBL document CHEMBL1909046, “DrugMatrix in vitro pharmacology data”.

Key:
[1] = target: T1, Alpha-1A adrenergic receptor (Rattus norvegicus, UniProt P43140); assay: DRUGMATRIX: Alpha-1A adrenergic receptor radioligand binding (ligand: prazosin); type: cell membranes, Wistar, Submaxillary gland, Membrane; conditions: Not Active = under 50% inhibition at 10 µM
T1 sequence (P43140 whole entry): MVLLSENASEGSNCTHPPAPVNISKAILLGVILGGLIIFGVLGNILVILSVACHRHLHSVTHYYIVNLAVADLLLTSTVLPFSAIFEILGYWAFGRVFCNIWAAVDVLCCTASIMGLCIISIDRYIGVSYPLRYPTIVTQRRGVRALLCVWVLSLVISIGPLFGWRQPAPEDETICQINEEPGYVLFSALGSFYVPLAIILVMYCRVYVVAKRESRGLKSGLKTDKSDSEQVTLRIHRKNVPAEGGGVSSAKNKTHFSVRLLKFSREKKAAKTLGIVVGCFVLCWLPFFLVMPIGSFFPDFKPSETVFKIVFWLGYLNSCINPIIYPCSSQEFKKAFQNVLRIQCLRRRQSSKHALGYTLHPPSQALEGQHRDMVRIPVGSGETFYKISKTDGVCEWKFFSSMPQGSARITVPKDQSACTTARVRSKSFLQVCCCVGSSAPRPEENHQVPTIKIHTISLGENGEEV

[2] = target: T2, 5-hydroxytryptamine receptor 2C (Homo sapiens, UniProt P28335); assay: DRUGMATRIX: Serotonin (5-Hydroxytryptamine) 5-HT2C radioligand binding (ligand: [3H] Mesulergine); type: cell membranes, CHO-K1, Membrane; conditions: cho-k1; Not Active = under 50% inhibition at 10 µM
T2 sequence (P28335 whole entry): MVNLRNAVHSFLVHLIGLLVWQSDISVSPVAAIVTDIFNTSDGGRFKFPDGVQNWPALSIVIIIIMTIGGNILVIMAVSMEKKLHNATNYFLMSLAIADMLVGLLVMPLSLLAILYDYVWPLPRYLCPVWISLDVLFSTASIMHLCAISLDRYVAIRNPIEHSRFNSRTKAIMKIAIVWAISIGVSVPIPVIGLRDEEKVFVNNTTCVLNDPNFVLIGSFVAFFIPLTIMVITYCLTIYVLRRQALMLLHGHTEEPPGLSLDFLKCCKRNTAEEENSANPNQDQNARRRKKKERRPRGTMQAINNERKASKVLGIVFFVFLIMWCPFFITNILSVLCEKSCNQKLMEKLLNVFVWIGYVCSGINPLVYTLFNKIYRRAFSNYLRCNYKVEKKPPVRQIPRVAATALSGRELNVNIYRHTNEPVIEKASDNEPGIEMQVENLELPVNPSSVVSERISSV

Melanocortin receptor 4 = Melanocortin receptor 4 (Homo sapiens, UniProt P32245); type: cell membranes, Membrane; conditions: hek293; further: in other assays of this panel Not Active means under 50% inhibition at 10 µM
[3] = target: T3, Amine oxidase [flavin-containing] A (Homo sapiens, UniProt P21397); assay: DRUGMATRIX: Monoamine Oxidase MAO-A enzyme inhibition (substrate: Kynuramine); design: species or system BTI-TN-5B1-4; conditions: bti-tn-5b1-4; Not Active = under 50% inhibition at 10 µM
T3 sequence (P21397 whole entry): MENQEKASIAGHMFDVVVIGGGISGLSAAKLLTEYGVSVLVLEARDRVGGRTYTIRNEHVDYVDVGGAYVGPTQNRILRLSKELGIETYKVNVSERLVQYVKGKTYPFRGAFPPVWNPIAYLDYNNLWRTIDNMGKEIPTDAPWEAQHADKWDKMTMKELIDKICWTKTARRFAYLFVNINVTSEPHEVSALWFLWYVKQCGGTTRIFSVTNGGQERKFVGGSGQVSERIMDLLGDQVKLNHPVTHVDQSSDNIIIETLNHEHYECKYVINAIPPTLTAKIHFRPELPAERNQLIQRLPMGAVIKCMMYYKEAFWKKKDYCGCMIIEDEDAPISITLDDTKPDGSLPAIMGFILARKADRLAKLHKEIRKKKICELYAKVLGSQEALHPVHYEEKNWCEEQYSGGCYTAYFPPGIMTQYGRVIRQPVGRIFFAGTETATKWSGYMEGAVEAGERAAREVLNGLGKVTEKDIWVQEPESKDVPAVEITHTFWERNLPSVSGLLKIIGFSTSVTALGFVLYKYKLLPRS

[4] = target: Platelet-activating factor receptor (Homo sapiens, UniProt P25105); type: tissue-based; further: in other assays of this panel Not Active means under 50% inhibition at 10 µM
Neutrophil elastase = target: T4, Neutrophil elastase (Homo sapiens, UniProt P08246); type: tissue-based;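 further: inhibition of neutrophil elastase enzyme activity, measured with a p-nitroanilide-linked peptide substrate; in other assays of this panel Not Active means under 50% inhibition at 10 µM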
T4 sequence (P08246 whole entry): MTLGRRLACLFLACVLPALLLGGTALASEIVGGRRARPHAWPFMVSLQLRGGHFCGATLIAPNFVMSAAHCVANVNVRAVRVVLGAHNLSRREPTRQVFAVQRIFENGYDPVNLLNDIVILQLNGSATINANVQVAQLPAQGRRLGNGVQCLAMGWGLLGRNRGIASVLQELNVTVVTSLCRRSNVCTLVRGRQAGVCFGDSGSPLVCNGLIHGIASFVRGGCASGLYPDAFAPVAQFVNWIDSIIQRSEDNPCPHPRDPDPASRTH

Cytochrome P450 1A2 = target: T5, Cytochrome P450 1A2 (Homo sapiens, UniProt P05177); conditions: bti-tn-5b1-4; further: in other assays of this panel Not Active means under 50% inhibition at 10 µM
T5 sequence (P05177 whole entry): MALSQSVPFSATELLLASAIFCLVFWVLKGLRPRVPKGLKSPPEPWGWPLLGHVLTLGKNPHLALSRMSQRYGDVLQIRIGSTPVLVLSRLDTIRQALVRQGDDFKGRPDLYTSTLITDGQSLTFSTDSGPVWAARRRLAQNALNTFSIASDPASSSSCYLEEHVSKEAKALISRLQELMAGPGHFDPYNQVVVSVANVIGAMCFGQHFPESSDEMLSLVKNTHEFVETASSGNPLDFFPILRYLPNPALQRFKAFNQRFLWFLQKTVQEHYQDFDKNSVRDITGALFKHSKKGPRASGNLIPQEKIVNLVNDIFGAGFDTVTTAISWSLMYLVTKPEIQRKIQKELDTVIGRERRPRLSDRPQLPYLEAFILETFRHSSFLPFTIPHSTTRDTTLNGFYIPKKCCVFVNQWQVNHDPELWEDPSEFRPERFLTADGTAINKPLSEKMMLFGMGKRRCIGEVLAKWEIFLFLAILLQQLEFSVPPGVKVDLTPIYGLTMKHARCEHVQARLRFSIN

Chain of Melanocortin receptor 4 (P32245 whole entry): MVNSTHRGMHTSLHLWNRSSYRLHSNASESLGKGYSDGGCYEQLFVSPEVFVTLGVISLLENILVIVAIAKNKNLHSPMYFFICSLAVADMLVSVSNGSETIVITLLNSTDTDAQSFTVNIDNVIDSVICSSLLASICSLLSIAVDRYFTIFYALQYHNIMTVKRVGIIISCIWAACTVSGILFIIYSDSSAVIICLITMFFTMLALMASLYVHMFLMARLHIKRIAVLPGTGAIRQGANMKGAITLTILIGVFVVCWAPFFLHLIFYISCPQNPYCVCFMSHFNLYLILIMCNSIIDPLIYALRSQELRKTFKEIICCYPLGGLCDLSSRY
Chain of Platelet-activating factor receptor (P25105 whole entry): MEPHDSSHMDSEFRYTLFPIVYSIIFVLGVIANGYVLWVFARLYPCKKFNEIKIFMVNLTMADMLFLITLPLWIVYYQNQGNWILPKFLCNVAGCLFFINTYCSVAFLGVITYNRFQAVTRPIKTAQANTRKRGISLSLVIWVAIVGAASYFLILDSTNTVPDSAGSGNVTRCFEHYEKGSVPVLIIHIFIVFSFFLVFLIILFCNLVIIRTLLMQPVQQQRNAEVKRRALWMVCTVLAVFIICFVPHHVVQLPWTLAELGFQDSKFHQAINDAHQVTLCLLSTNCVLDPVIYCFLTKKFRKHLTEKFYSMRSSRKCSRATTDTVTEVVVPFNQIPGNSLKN

C[C@]12C=CC(=O)C=C1CC[C@@H]1[C@@H]2C(=O)C[C@@]2(C)[C@H]1CC[C@]2(O)C(=O)CO [PREDNISONE]
Not Active: IC50 [1] | IC50 [2] | IC50 (Melanocortin receptor 4) | IC50 [3] | IC50 [4] | IC50 (Neutrophil elastase)

OCCOCCN1CCN(C2=Nc3ccccc3Sc3ccccc32)CC1 [QUETIAPINE]
Not Active: IC50 (Melanocortin receptor 4) | IC50 [3] | IC50 [4] | IC50 (Neutrophil elastase) | IC50 (Cytochrome P450 1A2) | Ki (Cytochrome P450 1A2)

COC(=O)[C@H]1[C@H]2C[C@@H]3c4[nH]c5cc(OC)ccc5c4CCN3C[C@H]2C[C@@H](OC(=O)c2cc(OC)c(OC)c(OC)c2)[C@@H]1OC [RESERPINE]
Not Active: IC50 [1] | IC50 [2] | IC50 (Melanocortin receptor 4) | IC50 [3] | IC50 [4] | IC50 (Neutrophil elastase) | IC50 (Cytochrome P450 1A2) | Ki (Cytochrome P450 1A2)

O=C(O)c1ccccc1O [SALICYLIC ACID]
Not Active: IC50 [1] | IC50 [2] | IC50 (Melanocortin receptor 4) | IC50 [3] | IC50 [4] | IC50 (Neutrophil elastase) | IC50 (Cytochrome P450 1A2) | Ki (Cytochrome P450 1A2)

C[S+]([O-])c1ccc(-c2nc(-c3ccncc3)c(-c3ccc(F)cc3)[nH]2)cc1 (stereo not drawn) [SB-203580]
Not Active: IC50 [1] | IC50 [2] | IC50 (Melanocortin receptor 4) | IC50 [3] | IC50 [4] | IC50 (Neutrophil elastase)

CC1CCC(NC(=O)N(CCCl)N=O)CC1 (stereo not drawn) [SEMUSTINE]
Not Active: IC50 [1] | IC50 [2] | IC50 (Melanocortin receptor 4) | IC50 [3] | IC50 [4] | IC50 (Neutrophil elastase) | IC50 (Cytochrome P450 1A2) | Ki (Cytochrome P450 1A2)

O=C1C[C@@H]2OCC=C3CN4CC[C@]56c7ccccc7N1[C@H]5[C@H]2[C@H]3C[C@H]46 [STRYCHNINE]
Not Active: IC50 [1] | IC50 [2] | IC50 (Melanocortin receptor 4) | IC50 [3] | IC50 [4] | IC50 (Neutrophil elastase) | IC50 (Cytochrome P450 1A2) | Ki (Cytochrome P450 1A2)

C[N+](C)(C)CCOC(=O)CCC(=O)OCC[N+](C)(C)C.[Cl-].[Cl-] [SUCCINYLCHOLINE CHLORIDE]
Not Active: IC50 [1] | IC50 [2] | IC50 (Melanocortin receptor 4) | IC50 [3] | IC50 [4] | IC50 (Neutrophil elastase) | IC50 (Cytochrome P450 1A2) | Ki (Cytochrome P450 1A2)

Nc1ccc(S(=O)(=O)NC(=O)c2ccccc2)cc1 [SULFABENZAMIDE]
Not Active: IC50 [1] | IC50 [2] | IC50 (Melanocortin receptor 4) | IC50 [3] | IC50 [4] | IC50 (Neutrophil elastase) | IC50 (Cytochrome P450 1A2) | Ki (Cytochrome P450 1A2)

CCCCCCCCNC(C)C(O)c1ccc(SC(C)C)cc1 (stereo not drawn) [SULOCTIDIL]
Not Active: IC50 [1] | IC50 [2] | IC50 (Melanocortin receptor 4) | IC50 [3] | IC50 [4] | IC50 (Neutrophil elastase)

CN1CCN(CCCN2c3ccccc3Sc3ccc(C(F)(F)F)cc32)CC1 [TRIFLUOPERAZINE]
Not Active: IC50 [1] | IC50 [2] | IC50 (Melanocortin receptor 4) | IC50 [3] | IC50 [4] | IC50 (Neutrophil elastase)
